{"source": "ChEMBL document CHEMBL1201862", "about": "“PubChem BioAssay data set” (2004)", "key": {"[1]": {"assay": "Concentration-dependent survival of SW480 colon cancer line, luminescence detection with CellTiter-Glo, half-maximal inhibitory concentration (AID 1117338)", "type": "functional"}, "[2]": {"assay": "RKO cell viability reduction, dose response, CellTiter-Glo luminescence (AID 1117322)", "type": "functional"}, "[3]": {"assay": "cytotoxicity toward HCT116 cells – cell-based, CellTiter-Glo luminescence, IC50, dose response (AID 1117332)", "type": "functional", "details": "HCT-116"}, "[4]": {"assay": "SNU-C1 cell viability reduction, dose response, CellTiter-Glo luminescence (AID 1117323)", "type": "functional, cell-based"}, "[5]": {"assay": "half-maximal inhibitory concentration for glucagon-like peptide-1 release, STC-1 cell line, dose-response (AID 1117345)", "type": "functional, cell-based"}, "[6]": {"assay": "cytotoxicity toward Colo320 cells – cell-based, CellTiter-Glo luminescence, IC50, dose response (AID 1117334)", "type": "functional", "details": "COLO 320"}, "[7]": {"assay": "cytotoxicity toward HT-29 cells – cell-based, CellTiter-Glo luminescence, IC50, dose response (AID 1117330)", "type": "functional"}, "[8]": {"assay": "CellTiter-Glo luminescent dose response of DLD-1 viability loss (AID 1117352)", "type": "functional"}, "[9]": {"assay": "HCT116 cell viability decrease, GSK3B pretreatment – CellTiter-Glo, IC50, dose response (AID 1117339)", "type": "functional", "details": "HCT-116"}, "[10]": {"assay": "Glucagon-like peptide 1 release potency, NCI-H716 cell line, dose-response, half-maximal inhibitory concentration (AID 1117344)", "type": "functional, cell-based"}, "HEK293 [11]": {"test_system": "HEK293", "assay": "NOD1 signaling inhibitors, primary screen, cell-based, luminescence, uHTS (AID 1578)", "type": "functional", "details": "Homo sapiens"}, "BJ [12]": {"test_system": "BJ", "assay": "cytotoxicity toward BJ-TERT fibroblasts, dose response, cell-based, RAS-independent, luminescence (AID 1933)", "type": "functional", "details": "Homo sapiens"}, "[13]": {"molecular_target": "Luciferin 4-monooxygenase (Photinus pyralis, UniProt P08659)", "sequence (P08659 whole entry)": "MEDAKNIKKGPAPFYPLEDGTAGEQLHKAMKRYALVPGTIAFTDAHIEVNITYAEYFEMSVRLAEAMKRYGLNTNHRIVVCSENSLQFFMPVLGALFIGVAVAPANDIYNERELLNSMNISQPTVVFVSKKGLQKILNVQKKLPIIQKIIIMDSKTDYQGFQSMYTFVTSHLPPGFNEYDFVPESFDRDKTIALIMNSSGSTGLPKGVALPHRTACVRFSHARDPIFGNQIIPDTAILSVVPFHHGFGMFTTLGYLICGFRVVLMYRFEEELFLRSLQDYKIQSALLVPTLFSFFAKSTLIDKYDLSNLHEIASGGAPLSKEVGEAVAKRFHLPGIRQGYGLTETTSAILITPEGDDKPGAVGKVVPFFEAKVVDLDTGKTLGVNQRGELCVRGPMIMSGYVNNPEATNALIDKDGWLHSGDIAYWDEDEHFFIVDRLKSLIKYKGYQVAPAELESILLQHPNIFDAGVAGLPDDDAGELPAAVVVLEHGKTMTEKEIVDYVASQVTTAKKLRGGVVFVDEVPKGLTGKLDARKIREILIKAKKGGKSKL", "assay": "Counter Screen for Luciferase-based Assay Positives. [Related pubchem assays: 620, 618, 411 ]"}, "HEK293 [14]": {"test_system": "HEK293", "assay": "cells", "type": "functional, cell-based", "details": "Homo sapiens"}, "BJ [15]": {"test_system": "BJ", "assay": "cells", "type": "functional, cell-based", "details": "Homo sapiens"}, "HEK293 [16]": {"test_system": "HEK293", "assay": "cells", "type": "functional, cell-based", "details": "Homo sapiens", "remark": "listed apart in the source"}, "[17]": {"molecular_target": "T1, E3 ubiquitin-protein ligase XIAP (Homo sapiens, UniProt P98170)", "T1 sequence (P98170 whole entry)": "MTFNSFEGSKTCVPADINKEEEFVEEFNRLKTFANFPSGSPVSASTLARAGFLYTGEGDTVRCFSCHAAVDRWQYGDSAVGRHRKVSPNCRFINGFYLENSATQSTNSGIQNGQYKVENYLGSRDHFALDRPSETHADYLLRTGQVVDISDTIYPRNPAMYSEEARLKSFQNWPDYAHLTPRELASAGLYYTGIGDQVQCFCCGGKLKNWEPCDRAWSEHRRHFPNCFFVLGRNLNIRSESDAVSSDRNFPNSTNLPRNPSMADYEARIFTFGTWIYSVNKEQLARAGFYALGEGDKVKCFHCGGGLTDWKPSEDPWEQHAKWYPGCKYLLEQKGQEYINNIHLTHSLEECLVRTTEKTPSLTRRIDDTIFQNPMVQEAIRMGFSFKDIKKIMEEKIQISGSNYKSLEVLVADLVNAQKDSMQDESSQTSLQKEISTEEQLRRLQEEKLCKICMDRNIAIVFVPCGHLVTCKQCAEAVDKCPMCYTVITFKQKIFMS", "assay": "Counter Screen using XIAP-Bir3 for Chemical Antagonists of Bir1/2 domains of IAP-family anti-apoptotic proteins. [Related pubchem assays (depositor defined):AID1018, AID1449, AID1514, AID1638, AID1749, AID1750, AID488957, AID488963]"}, "[18]": {"molecular_target": "T1, E3 ubiquitin-protein ligase XIAP", "assay": "XIAP antagonists, biochemical, IAP family, fluorescence polarization (AID 1018)", "type": "functional"}, "HEK293 [19]": {"test_system": "HEK293", "assay": "NOD2 signaling inhibitors in MDP-stimulated cells, cell-based, uHTS, luminescence (AID 2001)", "type": "functional", "details": "Homo sapiens"}, "[20]": {"assay": "microbe, parasite or virus in culture", "type": "functional", "details": "Mycobacterium tuberculosis"}, "HT-1080": {"test_system": "HT-1080", "assay": "cytotoxicity in HT1080 fibrosarcoma cells, cell-based, fluorescence readout (AID 620)", "type": "functional", "details": "Homo sapiens"}, "BJ [21]": {"test_system": "BJ", "assay": "cytotoxicity toward BJ-TERT-LT-ST fibroblasts, dose response, cell-based, RAS-independent, luminescence (AID 1935);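 further: BJ fibroblasts immortalized with TERT plus LT and ST oncogenes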", "type": "functional", "details": "Homo sapiens"}, "[22]": {"assay": "cytotoxicity toward DRD oncogenic fibroblasts, dose response, cell-based, non-viral oncogenic, luminescence (AID 1934)", "type": "functional", "details": "Homo sapiens"}, "[23]": {"molecular_target": "T2, Replicative DNA helicase DnaB (Mycobacterium tuberculosis, UniProt P9WMR3)", "T2 sequence (P9WMR3 whole entry)": "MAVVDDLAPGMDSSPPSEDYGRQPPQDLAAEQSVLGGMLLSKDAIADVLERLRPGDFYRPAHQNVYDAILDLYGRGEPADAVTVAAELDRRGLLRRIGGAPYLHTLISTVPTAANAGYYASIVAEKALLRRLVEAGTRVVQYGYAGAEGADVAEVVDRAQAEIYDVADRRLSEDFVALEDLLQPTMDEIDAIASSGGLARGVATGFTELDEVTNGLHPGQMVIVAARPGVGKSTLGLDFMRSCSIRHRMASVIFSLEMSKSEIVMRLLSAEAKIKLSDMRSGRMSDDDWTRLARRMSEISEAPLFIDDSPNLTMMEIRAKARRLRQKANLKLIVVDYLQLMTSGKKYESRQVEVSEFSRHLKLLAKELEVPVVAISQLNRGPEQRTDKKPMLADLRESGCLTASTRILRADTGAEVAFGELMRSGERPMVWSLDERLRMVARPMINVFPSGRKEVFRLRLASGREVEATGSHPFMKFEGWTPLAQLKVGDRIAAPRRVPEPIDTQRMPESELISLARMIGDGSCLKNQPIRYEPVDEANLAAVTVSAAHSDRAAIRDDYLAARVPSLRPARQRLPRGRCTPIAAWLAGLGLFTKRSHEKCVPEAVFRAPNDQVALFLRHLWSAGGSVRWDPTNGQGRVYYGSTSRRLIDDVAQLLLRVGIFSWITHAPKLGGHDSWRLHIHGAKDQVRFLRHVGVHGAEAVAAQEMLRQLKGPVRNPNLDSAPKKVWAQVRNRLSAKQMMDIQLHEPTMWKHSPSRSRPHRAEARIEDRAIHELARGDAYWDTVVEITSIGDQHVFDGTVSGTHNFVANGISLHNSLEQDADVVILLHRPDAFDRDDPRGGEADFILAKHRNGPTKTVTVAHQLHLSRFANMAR", "assay": "DnaB intein splicing inhibitors, dose response, biochemical, cell-free fluorescence (AID 449749)", "type": "functional"}, "BJ [24]": {"test_system": "BJ", "assay": "cytotoxicity toward Ras-transformed BJeLR fibroblasts, dose response, cell-based, alamar blue fluorescence, cherrypicked samples (AID 2631)", "type": "functional", "details": "Homo sapiens"}, "Protein RecA": {"molecular_target": "T3, Protein RecA (Mycobacterium tuberculosis, UniProt P9WHJ3)", "T3 sequence (P9WHJ3 whole entry)": "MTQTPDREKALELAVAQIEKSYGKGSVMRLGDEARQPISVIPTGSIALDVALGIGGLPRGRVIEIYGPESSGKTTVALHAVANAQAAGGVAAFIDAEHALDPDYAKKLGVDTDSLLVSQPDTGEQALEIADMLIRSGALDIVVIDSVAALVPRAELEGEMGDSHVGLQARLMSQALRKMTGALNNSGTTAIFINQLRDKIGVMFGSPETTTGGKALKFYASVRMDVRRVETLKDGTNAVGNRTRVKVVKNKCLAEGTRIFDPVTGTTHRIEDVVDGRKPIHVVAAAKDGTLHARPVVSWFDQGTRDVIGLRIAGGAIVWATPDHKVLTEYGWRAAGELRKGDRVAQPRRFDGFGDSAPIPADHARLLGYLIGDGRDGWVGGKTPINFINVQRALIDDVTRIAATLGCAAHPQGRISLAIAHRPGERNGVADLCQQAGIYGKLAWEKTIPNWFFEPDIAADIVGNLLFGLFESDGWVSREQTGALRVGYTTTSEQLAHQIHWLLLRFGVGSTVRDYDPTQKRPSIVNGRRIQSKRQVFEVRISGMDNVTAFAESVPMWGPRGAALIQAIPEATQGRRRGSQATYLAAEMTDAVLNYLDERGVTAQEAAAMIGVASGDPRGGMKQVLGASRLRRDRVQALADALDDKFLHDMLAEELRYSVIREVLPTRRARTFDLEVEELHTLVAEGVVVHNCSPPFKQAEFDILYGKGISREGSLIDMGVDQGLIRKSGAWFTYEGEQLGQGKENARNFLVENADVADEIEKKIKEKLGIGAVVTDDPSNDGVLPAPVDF", "assay": "Fluorescence Cell-Free Homogeneous Dose Retest to Identify Inhibitors of RecA-Intein Splicing Activity. [Related pubchem assays (depositor defined):AID2097, AID2223, AID489010, AID492950]", "type": "functional"}, "[25]": {"assay": "inhibitors of PGC1a acetylation in cells, dose response, cell-based, cherry-picked samples (AID 720514);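 further: potency may reflect raised or lowered acetylation signal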", "type": "functional"}, "[26]": {"assay": "Vero cell cytotoxicity, dose response, cytotoxicity control for Vif-APOBEC3G degradation inhibitor project, Vero cells (AID 1117358)", "type": "functional", "details": "Human immunodeficiency virus 1, Vero"}, "[27]": {"molecular_target": "G-protein coupled receptor 183 (Homo sapiens, UniProt P32249)", "sequence (P32249 whole entry)": "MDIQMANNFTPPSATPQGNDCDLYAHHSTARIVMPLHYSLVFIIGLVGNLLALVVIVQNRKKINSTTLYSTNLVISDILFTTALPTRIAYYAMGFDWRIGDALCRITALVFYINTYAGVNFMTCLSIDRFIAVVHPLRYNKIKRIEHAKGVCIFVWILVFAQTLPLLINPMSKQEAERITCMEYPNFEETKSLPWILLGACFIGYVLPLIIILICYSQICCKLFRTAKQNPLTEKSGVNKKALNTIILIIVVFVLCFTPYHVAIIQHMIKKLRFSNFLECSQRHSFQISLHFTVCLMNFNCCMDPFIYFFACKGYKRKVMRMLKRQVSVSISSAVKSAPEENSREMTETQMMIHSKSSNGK", "assay": "SAR confirmation of small molecule antagonists of the EBI2 receptor via a luminescent beta-arrestin assa.", "type": "functional"}}, "note": "Calls of active or inactive are those of the source.", "data": [{"molecule": "c1ccc2c(c1)Sc1ccccc1N2CC1CN2CCC1CC2", "note": "(centres undefined) [MEQUITAZINE]", "values": [{"measurement": "IC50", "setting": "[1]", "result": "5.43 µM (inactive)"}, {"measurement": "IC50", "setting": "[2]", "result": "8.46 µM (inactive)"}, {"measurement": "IC50", "setting": "[3]", "result": "> 20 µM (inactive)"}, {"measurement": "IC50", "setting": "[4]", "result": "> 20 µM (inactive)"}, {"measurement": "IC50", "setting": "[5]", "result": "> 40 µM (inactive)"}, {"measurement": "IC50", "setting": "[6]", "result": "> 20 µM (inactive)"}, {"measurement": "IC50", "setting": "[7]", "result": "> 20 µM (inactive)"}, {"measurement": "IC50", "setting": "[8]", "result": "> 20 µM (inactive)"}, {"measurement": "IC50", "setting": "[9]", "result": "> 20 µM (inactive)"}, {"measurement": "IC50", "setting": "[10]", "result": "> 40 µM (inactive)"}]}, {"molecule": "O=S(=O)(c1ccc(Cl)cc1)c1snnc1-c1ccccc1", "values": [{"measurement": "EC50", "setting": "HEK293 [11]", "result": "10.7 µM (active)"}, {"measurement": "EC50", "setting": "BJ [12]", "result": "2.39 µM (active)"}, {"measurement": "EC50", "setting": "[13]", "result": "3.73 µM (active)"}, {"measurement": "IC50", "setting": "HEK293 [14]", "result": "2.17 µM (active)"}, {"measurement": "EC50", "setting": "BJ [15]", "result": "3.53 µM (active)"}, {"measurement": "IC50", "setting": "HEK293 [16]", "result": "> 20 µM (inactive)"}, {"measurement": "IC50", "setting": "[17]", "result": "> 100 µM (inactive)"}, {"measurement": "IC50", "setting": "[18]", "result": "> 100 µM (not active)"}, {"measurement": "IC50", "setting": "HEK293 [19]", "result": "6.92 µM (inactive)"}, {"measurement": "CC50", "setting": "[20]", "result": "2.44 µM (active)"}, {"measurement": "EC50", "setting": "HT-1080", "result": "20.7 µM (active)"}, {"measurement": "EC50", "setting": "BJ [21]", "result": "3.25 µM (inconclusive)"}, {"measurement": "EC50", "setting": "[22]", "result": "4.96 µM (active)"}, {"measurement": "AC50", "setting": "[23]", "result": "23.9 µM (active)"}, {"measurement": "EC50", "setting": "BJ [24]", "result": "0.51 µM (active)"}, {"measurement": "EC50", "setting": "Protein RecA", "result": "9.19 µM (active)"}, {"measurement": "AC50", "setting": "[25]", "result": "7.86 µM (active)"}]}, {"molecule": "S=C(Nc1ccc(Oc2ccccc2)cc1)NC1CCCCC1", "values": [{"measurement": "CC50", "setting": "[26]", "result": "30.1 µM (active)"}]}, {"molecule": "O=C(CCCc1ccc(Br)cc1)N1CCN(C(=O)c2ccc(Cl)cc2)CC1", "values": [{"measurement": "IC50", "setting": "[27]", "result": "> 1 µM (inactive)"}]}]}
